How the values were obtained:
Format in all cases: in vivo
[1] = system: Amaranthus pa/meri (AMAPA); assay: Post-emergence herbicidal glasshouse test; settings: 250 g/ha, sprayed after 8 days cultivation, evaluated after 13 days
Method: (§1) Seeds of a variety of test species are sown in standard soil in pots Amaranthus pa/meri (AMAPA), Amaranthus retoflexus (AMARE), Echinochloa crus-gali (ECHCG), Ipomoea hederacea (IPOHE), Setaria faberi (SETFA). After cultivation for one day (pre-emergence) or after 8 days cultivation (post-emergence) under controlled conditions in a glasshouse (at 24/16° C., day/night; 14 hours light; 65% humidity), the plants are sprayed with an aqueous spray solution derived from the formulation of the technical active ingredient in acetone/water (50:50) solution containing 0.5% Tween 20 (polyoxyethelyene sorbitan monolaurate, CAS RN 9005-64-5). Compounds are applied at 250 g/ha unless otherwise stated. The test plants are then grown in a glasshouse under controlled conditions in a glasshouse (at 24/16° C., day/night; 14 hours light; 65% humidity) and watered twice daily. After 13 days for pre and post-emergence, the test is evaluated for the percentage damage caused to the plant. The biological activities are shown in the following table on a five-point scale (5=81-100%; 4=61-80%; 3=41-60%; 2=21-40%; 1=0-20%).

[2] = system: Amaranthus retoflexus (AMARE); assay: Post-emergence herbicidal glasshouse test; settings: 250 g/ha, sprayed after 8 days cultivation, evaluated after 13 days
Method: as §1

[3] = system: Echinochloa crus-gali (ECHCG); assay: Post-emergence herbicidal glasshouse test; settings: 250 g/ha, sprayed after 8 days cultivation, evaluated after 13 days
Method: as §1

[4] = system: Ipomoea hederacea (IPOHE); assay: Post-emergence herbicidal glasshouse test; settings: 250 g/ha, sprayed after 8 days cultivation, evaluated after 13 days
Method: as §1

[5] = system: Amaranthus pa/meri (AMAPA); assay: Pre-emergence herbicidal glasshouse test; settings: 250 g/ha, sprayed after one day cultivation, evaluated after 13 days
Method: as §1

[6] = system: Amaranthus retoflexus (AMARE); assay: Pre-emergence herbicidal glasshouse test; settings: 250 g/ha, sprayed after one day cultivation, evaluated after 13 days
Method: as §1

[7] = system: Echinochloa crus-gali (ECHCG); assay: Pre-emergence herbicidal glasshouse test; settings: 250 g/ha, sprayed after one day cultivation, evaluated after 13 days
Method: as §1

[8] = system: Ipomoea hederacea (IPOHE); assay: Pre-emergence herbicidal glasshouse test; settings: 250 g/ha, sprayed after one day cultivation, evaluated after 13 days
Method: as §1

CCCCc1nc(C(F)(F)F)cn1Cc1ncc(F)cn1 [Compound 1.077, 2-[[2-butyl-4-(trifluoromethyl)imidazol-1-yl]methyl]-5-fluoro-pyrimidine]
percentage damage caused to the plant, AMAPA [1]: 2 (2=21-40%)
percentage damage caused to the plant, AMARE [2]: 3 (3=41-60%)
percentage damage caused to the plant, ECHCG [3]: 1 (1=0-20%)
percentage damage caused to the plant, IPOHE [4]: 3 (3=41-60%)
percentage damage caused to the plant, AMAPA [5]: 5 (5=81-100%)
percentage damage caused to the plant, AMARE [6]: 5 (5=81-100%)
percentage damage caused to the plant, ECHCG [7]: 1 (1=0-20%)
percentage damage caused to the plant, IPOHE [8]: 5 (5=81-100%)

N#CCCc1nc(C(F)(F)F)cn1Cc1ncc(Cl)cn1 [Compound 1.029]
percentage damage caused to the plant, AMAPA [1]: 4 (4=61-80%)
percentage damage caused to the plant, AMARE [2]: 4 (4=61-80%)
percentage damage caused to the plant, ECHCG [3]: 1 (1=0-20%)
percentage damage caused to the plant, IPOHE [4]: 3 (3=41-60%)
percentage damage caused to the plant, AMAPA [5]: 5 (5=81-100%)
percentage damage caused to the plant, AMARE [6]: 5 (5=81-100%)
percentage damage caused to the plant, ECHCG [7]: 2 (2=21-40%)
percentage damage caused to the plant, IPOHE [8]: 5 (5=81-100%)

ON=CCCc1nc(C(F)(F)F)cn1Cc1ncc(Cl)cn1 (single isomer, unassigned) [Compound 1.005]
percentage damage caused to the plant, AMAPA [1]: 3 (3=41-60%)
percentage damage caused to the plant, AMARE [2]: 3 (3=41-60%)
percentage damage caused to the plant, ECHCG [3]: 1 (1=0-20%)
percentage damage caused to the plant, IPOHE [4]: 2 (2=21-40%)
percentage damage caused to the plant, AMAPA [5]: 1 (1=0-20%)
percentage damage caused to the plant, AMARE [6]: 1 (1=0-20%)
percentage damage caused to the plant, ECHCG [7]: 1 (1=0-20%)
percentage damage caused to the plant, IPOHE [8]: 1 (1=0-20%)

CCCCc1nc(I)cn1Cc1ncc(Cl)cn1 [Compound 1.079]
percentage damage caused to the plant, AMAPA [1]: 1 (1=0-20%)
percentage damage caused to the plant, AMARE [2]: 1 (1=0-20%)
percentage damage caused to the plant, ECHCG [3]: 1 (1=0-20%)
percentage damage caused to the plant, IPOHE [4]: 1 (1=0-20%)
percentage damage caused to the plant, AMAPA [5]: 1 (1=0-20%)
percentage damage caused to the plant, AMARE [6]: 1 (1=0-20%)
percentage damage caused to the plant, ECHCG [7]: 1 (1=0-20%)

C#CCON=CCCc1nc(C(F)(F)F)cn1Cc1ncc(Cl)cn1 (single isomer, unassigned) [Compound 1.028]
percentage damage caused to the plant, AMAPA [1]: 4 (4=61-80%)
percentage damage caused to the plant, AMARE [2]: 5 (5=81-100%)
percentage damage caused to the plant, ECHCG [3]: 2 (2=21-40%)
percentage damage caused to the plant, IPOHE [4]: 2 (2=21-40%)
percentage damage caused to the plant, AMAPA [5]: 5 (5=81-100%)
percentage damage caused to the plant, AMARE [6]: 5 (5=81-100%)
percentage damage caused to the plant, ECHCG [7]: 1 (1=0-20%)
percentage damage caused to the plant, IPOHE [8]: 4 (4=61-80%)

CCCCc1nc(I)c(I)n1Cc1ncc(Cl)cn1 [Compound 1.078]
percentage damage caused to the plant, AMAPA [1]: 2 (2=21-40%)
percentage damage caused to the plant, AMARE [2]: 2 (2=21-40%)
percentage damage caused to the plant, ECHCG [3]: 1 (1=0-20%)
percentage damage caused to the plant, IPOHE [4]: 1 (1=0-20%)
percentage damage caused to the plant, AMAPA [5]: 1 (1=0-20%)
percentage damage caused to the plant, AMARE [6]: 1 (1=0-20%)
percentage damage caused to the plant, ECHCG [7]: 1 (1=0-20%)
percentage damage caused to the plant, IPOHE [8]: 1 (1=0-20%)

FC(F)COCCc1nc(C(F)(F)F)cn1Cc1ncc(Cl)cn1 [Compound 1.017]
percentage damage caused to the plant, AMAPA [1]: 4 (4=61-80%)
percentage damage caused to the plant, AMARE [2]: 4 (4=61-80%)
percentage damage caused to the plant, ECHCG [3]: 3 (3=41-60%)
percentage damage caused to the plant, IPOHE [4]: 4 (4=61-80%)
percentage damage caused to the plant, AMAPA [5]: 5 (5=81-100%)
percentage damage caused to the plant, AMARE [6]: 5 (5=81-100%)
percentage damage caused to the plant, ECHCG [7]: 5 (5=81-100%)
percentage damage caused to the plant, IPOHE [8]: 5 (5=81-100%)

FC(F)(F)c1cn(Cc2ncc(Cl)cn2)c(CC2CCOCC2)n1 [Compound 1.075]
percentage damage caused to the plant, AMAPA [1]: 4 (4=61-80%)
percentage damage caused to the plant, AMARE [2]: 4 (4=61-80%)
percentage damage caused to the plant, ECHCG [3]: 4 (4=61-80%)
percentage damage caused to the plant, IPOHE [4]: 4 (4=61-80%)
percentage damage caused to the plant, AMAPA [5]: 5 (5=81-100%)
percentage damage caused to the plant, AMARE [6]: 5 (5=81-100%)
percentage damage caused to the plant, ECHCG [7]: 4 (4=61-80%)
percentage damage caused to the plant, IPOHE [8]: 5 (5=81-100%)

CCCCc1nc(C(F)(F)F)cn1Cc1ccc(Cl)cn1 [Compound 1.055]
percentage damage caused to the plant, AMAPA [1]: 1 (1=0-20%)
percentage damage caused to the plant, AMARE [2]: 1 (1=0-20%)
percentage damage caused to the plant, ECHCG [3]: 1 (1=0-20%)
percentage damage caused to the plant, IPOHE [4]: 1 (1=0-20%)
percentage damage caused to the plant, AMAPA [5]: 1 (1=0-20%)
percentage damage caused to the plant, AMARE [6]: 1 (1=0-20%)
percentage damage caused to the plant, ECHCG [7]: 1 (1=0-20%)
percentage damage caused to the plant, IPOHE [8]: 3 (3=41-60%)

CCCCc1nc(C(F)(F)F)cn1Cc1ccc(Cl)cn1 [Compound 1.057]
percentage damage caused to the plant, AMAPA [1]: 2 (2=21-40%)
percentage damage caused to the plant, AMARE [2]: 3 (3=41-60%)
percentage damage caused to the plant, ECHCG [3]: 1 (1=0-20%)
percentage damage caused to the plant, IPOHE [4]: 2 (2=21-40%)
percentage damage caused to the plant, AMAPA [5]: 5 (5=81-100%)
percentage damage caused to the plant, AMARE [6]: 3 (3=41-60%)
percentage damage caused to the plant, ECHCG [7]: 1 (1=0-20%)
percentage damage caused to the plant, IPOHE [8]: 1 (1=0-20%)

CON=CCCc1nc(C(F)(F)F)cn1Cc1ncc(Cl)cn1 (single isomer, unassigned) [Compound 1.007, 3-[1-[(5-chloropyrimidin-2-yl)methyl]-4-(trifluoromethyl)-imidazol-2-yl]-N-methoxy-propan-1-imine]
percentage damage caused to the plant, AMAPA [1]: 4 (4=61-80%)
percentage damage caused to the plant, AMARE [2]: 4 (4=61-80%)
percentage damage caused to the plant, ECHCG [3]: 1 (1=0-20%)
percentage damage caused to the plant, IPOHE [4]: 3 (3=41-60%)
percentage damage caused to the plant, AMAPA [5]: 5 (5=81-100%)
percentage damage caused to the plant, AMARE [6]: 5 (5=81-100%)
percentage damage caused to the plant, ECHCG [7]: 2 (2=21-40%)
percentage damage caused to the plant, IPOHE [8]: 5 (5=81-100%)

FC(F)(F)c1cn(Cc2ncc(Cl)cn2)c(CC2CCOC2)n1 (stereo not drawn) [Compound 1.074]
percentage damage caused to the plant, AMAPA [1]: 4 (4=61-80%)
percentage damage caused to the plant, AMARE [2]: 4 (4=61-80%)
percentage damage caused to the plant, ECHCG [3]: 3 (3=41-60%)
percentage damage caused to the plant, IPOHE [4]: 4 (4=61-80%)
percentage damage caused to the plant, AMAPA [5]: 5 (5=81-100%)
percentage damage caused to the plant, AMARE [6]: 5 (5=81-100%)
percentage damage caused to the plant, ECHCG [7]: 3 (3=41-60%)
percentage damage caused to the plant, IPOHE [8]: 5 (5=81-100%)

CCCCCc1nc(C(F)(F)F)cn1Cc1ncc(C)cn1 [Compound 1.016]
percentage damage caused to the plant, AMAPA [1]: 1 (1=0-20%)
percentage damage caused to the plant, AMARE [2]: 2 (2=21-40%)
percentage damage caused to the plant, ECHCG [3]: 1 (1=0-20%)
percentage damage caused to the plant, IPOHE [4]: 2 (2=21-40%)
percentage damage caused to the plant, AMAPA [5]: 5 (5=81-100%)
percentage damage caused to the plant, AMARE [6]: 5 (5=81-100%)
percentage damage caused to the plant, ECHCG [7]: 1 (1=0-20%)
percentage damage caused to the plant, IPOHE [8]: 2 (2=21-40%)

O=S(=O)(CCC(F)(F)F)c1nc(C(F)F)cn1Cc1ncc(Cl)cn1 [Compound 1.009]
percentage damage caused to the plant, AMAPA [1]: 1 (1=0-20%)
percentage damage caused to the plant, AMARE [2]: 1 (1=0-20%)
percentage damage caused to the plant, ECHCG [3]: 1 (1=0-20%)
percentage damage caused to the plant, IPOHE [4]: 1 (1=0-20%)
percentage damage caused to the plant, AMAPA [5]: 1 (1=0-20%)
percentage damage caused to the plant, AMARE [6]: 1 (1=0-20%)
percentage damage caused to the plant, ECHCG [7]: 1 (1=0-20%)
percentage damage caused to the plant, IPOHE [8]: 2 (2=21-40%)

FC(F)c1cn(Cc2ncc(Cl)cn2)c(SCCC(F)(F)F)n1 [Compound 1.012]
percentage damage caused to the plant, AMAPA [1]: 1 (1=0-20%)
percentage damage caused to the plant, AMARE [2]: 1 (1=0-20%)
percentage damage caused to the plant, ECHCG [3]: 1 (1=0-20%)
percentage damage caused to the plant, IPOHE [4]: 2 (2=21-40%)
percentage damage caused to the plant, AMAPA [5]: 1 (1=0-20%)
percentage damage caused to the plant, AMARE [6]: 1 (1=0-20%)
percentage damage caused to the plant, ECHCG [7]: 1 (1=0-20%)
percentage damage caused to the plant, IPOHE [8]: 1 (1=0-20%)

CCCCc1nc(C(F)(F)F)cn1Cc1ccc(C#N)cn1 [Compound 1.056]
percentage damage caused to the plant, AMAPA [1]: 2 (2=21-40%)
percentage damage caused to the plant, AMARE [2]: 2 (2=21-40%)
percentage damage caused to the plant, ECHCG [3]: 1 (1=0-20%)
percentage damage caused to the plant, IPOHE [4]: 2 (2=21-40%)
percentage damage caused to the plant, AMAPA [5]: 4 (4=61-80%)
percentage damage caused to the plant, AMARE [6]: 4 (4=61-80%)
percentage damage caused to the plant, ECHCG [7]: 1 (1=0-20%)
percentage damage caused to the plant, IPOHE [8]: 2 (2=21-40%)

O=CCCc1nc(C(F)(F)F)cn1Cc1ncc(Cl)cn1 [Compound 1.013, 3-[1-[(5-chloropyrimidin-2-yl)methyl]-4-(trifluoromethyl)imidazol-2-yl]propanal]
percentage damage caused to the plant, AMAPA [1]: 1 (1=0-20%)
percentage damage caused to the plant, AMARE [2]: 1 (1=0-20%)
percentage damage caused to the plant, ECHCG [3]: 1 (1=0-20%)
percentage damage caused to the plant, IPOHE [4]: 1 (1=0-20%)
percentage damage caused to the plant, AMAPA [5]: 2 (2=21-40%)
percentage damage caused to the plant, AMARE [6]: 5 (5=81-100%)
percentage damage caused to the plant, ECHCG [7]: 1 (1=0-20%)
percentage damage caused to the plant, IPOHE [8]: 1 (1=0-20%)
